Source: patent publication US9580416B2, “Inhibitors of Bruton's tyrosine kinase” (PHARMACYCLICS LLC, priority 2014, dated 2017)

What was measured:
Format in all cases: biochemical
Btk = Btk (Homo sapiens, UniProt Q06187); experiment: Btk kinase activity, TR-FRET assay; details: read-out: Btk (IC50)
Experimental: (§1) Btk kinase activity is determined using a time-resolved fluorescence resonance energy transfer (TR-FRET) methodology. Measurements are performed in a reaction volume of 50 μL using 96-well assay plates. Kinase enzyme, inhibitor, ATP (at the Km for the kinase), and 1 […] (Biotin-AVLESEEELYSSARQ-NH2) are incubated in a reaction buffer composed of 20 mM Tris, 50 mM NaCl, MgCl2 (5-25 mM depending on the kinase), MnCl2 (0-10 mM), 1 mM DTT, 0.1 mM EDTA, 0.01% bovine serum albumin, 0.005% Tween-20, and 10% DMSO at pH 7.4 for one hour. The reaction is quenched by the addition of 1.2 equivalents of EDTA (relative to divalent cation) in 25 μL of 1× Lance buffer (Perkin-Elmer). Streptavidin-APC (Perkin-Elmer) and Eu-labeled p-Tyr100 antibody (Perkin-Elmer) in 1× Lance buffer are added in a 25 μL volume to give final concentrations of 100 nM and 2.5 nM, respectively, and the mixture is allowed to incubate for one hour. The TR-FRET signal is measured on a multimode plate reader with an excitation wavelength (λEx) of 330 nm and detection wavelengths (λEm) of 615 and 665 nm. Activity is determined by the ratio of the fluorescence at 665 nm to that at 615 nm. For each compound, enzyme activity is measured at various concentrations of compound. Negative control reactions are performed in the absence of inhibitor in replicates of six, and two no-enzyme controls are used to determine baseline fluorescence levels. Inhibition constants, Ki(app), ware obtained using the program BatchKi (Kuzmic et al. (2000), Anal. Biochem. 286:45-50). IC50s are obtained according to the equation: IC50={Ki(app)/(1+[ATP]/Km^ATP)}+[E]total/2;
(§2) For all kinases, [ATP]=Km^ATP, [Btk]total=0.5 nM and [Lck]total=6 nM.

Lck = Lck (Homo sapiens, UniProt P06239); experiment: Lck kinase activity, TR-FRET assay; details: read-out: LCK (IC50)
Sequence of Lck (P06239 whole entry, species assumed): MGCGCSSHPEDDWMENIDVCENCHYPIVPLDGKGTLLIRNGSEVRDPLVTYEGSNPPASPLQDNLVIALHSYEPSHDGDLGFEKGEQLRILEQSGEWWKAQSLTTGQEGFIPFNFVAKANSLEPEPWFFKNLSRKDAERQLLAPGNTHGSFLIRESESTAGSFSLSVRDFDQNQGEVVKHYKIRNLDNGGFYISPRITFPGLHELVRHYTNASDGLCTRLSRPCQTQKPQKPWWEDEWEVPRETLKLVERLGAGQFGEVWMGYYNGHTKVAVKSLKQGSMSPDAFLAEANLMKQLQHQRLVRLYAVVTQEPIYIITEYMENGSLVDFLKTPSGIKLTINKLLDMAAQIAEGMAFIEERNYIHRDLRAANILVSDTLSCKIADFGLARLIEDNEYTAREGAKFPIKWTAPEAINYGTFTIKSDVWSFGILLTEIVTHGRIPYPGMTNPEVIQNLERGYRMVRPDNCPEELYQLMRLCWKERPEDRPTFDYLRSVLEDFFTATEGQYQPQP
Experimental: as §1, §2

EGFR = EGFR (Homo sapiens, UniProt P00533); experiment: Inhibition of a panel of kinases, in vitro HotSpot kinase assay: EGFR
Sequence of EGFR (P00533 25-1210): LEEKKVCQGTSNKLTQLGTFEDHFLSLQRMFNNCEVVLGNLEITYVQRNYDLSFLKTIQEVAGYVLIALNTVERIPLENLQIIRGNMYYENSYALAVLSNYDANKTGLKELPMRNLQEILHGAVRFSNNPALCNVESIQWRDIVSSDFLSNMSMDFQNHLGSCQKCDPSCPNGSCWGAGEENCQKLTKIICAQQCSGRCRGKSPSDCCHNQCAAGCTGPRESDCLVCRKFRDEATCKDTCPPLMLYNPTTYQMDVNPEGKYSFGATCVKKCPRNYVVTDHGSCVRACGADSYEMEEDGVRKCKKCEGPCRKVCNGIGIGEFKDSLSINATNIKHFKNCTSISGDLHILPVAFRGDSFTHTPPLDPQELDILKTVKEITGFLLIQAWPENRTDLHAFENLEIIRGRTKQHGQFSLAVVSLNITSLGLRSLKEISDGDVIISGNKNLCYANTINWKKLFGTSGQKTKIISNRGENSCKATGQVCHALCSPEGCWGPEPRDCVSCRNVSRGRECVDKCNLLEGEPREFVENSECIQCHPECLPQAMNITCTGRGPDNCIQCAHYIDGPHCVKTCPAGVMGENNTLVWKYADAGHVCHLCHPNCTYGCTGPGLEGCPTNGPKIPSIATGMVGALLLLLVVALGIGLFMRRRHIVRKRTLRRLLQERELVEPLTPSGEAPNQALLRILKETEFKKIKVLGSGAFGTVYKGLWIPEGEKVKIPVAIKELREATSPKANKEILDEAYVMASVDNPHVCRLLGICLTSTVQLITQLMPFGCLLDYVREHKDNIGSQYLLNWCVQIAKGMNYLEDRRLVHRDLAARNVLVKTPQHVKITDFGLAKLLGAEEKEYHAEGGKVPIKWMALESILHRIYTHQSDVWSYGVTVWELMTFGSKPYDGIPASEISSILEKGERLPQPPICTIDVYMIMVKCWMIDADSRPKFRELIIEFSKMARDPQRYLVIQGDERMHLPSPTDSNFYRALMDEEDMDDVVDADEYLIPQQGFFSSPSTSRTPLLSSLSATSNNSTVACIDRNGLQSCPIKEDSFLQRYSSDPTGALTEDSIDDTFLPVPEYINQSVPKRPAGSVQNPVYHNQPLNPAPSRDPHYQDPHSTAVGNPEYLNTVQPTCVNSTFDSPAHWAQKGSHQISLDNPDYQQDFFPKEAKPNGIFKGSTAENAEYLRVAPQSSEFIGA
Experimental: The degree of inhibition of a panel of kinases is determined using the in vitro HotSpot kinase assay (purified enzymes, ^33P-ATP, an appropriate substrate and 1 uM ATP).

Sequence of Btk (Q06187 whole entry): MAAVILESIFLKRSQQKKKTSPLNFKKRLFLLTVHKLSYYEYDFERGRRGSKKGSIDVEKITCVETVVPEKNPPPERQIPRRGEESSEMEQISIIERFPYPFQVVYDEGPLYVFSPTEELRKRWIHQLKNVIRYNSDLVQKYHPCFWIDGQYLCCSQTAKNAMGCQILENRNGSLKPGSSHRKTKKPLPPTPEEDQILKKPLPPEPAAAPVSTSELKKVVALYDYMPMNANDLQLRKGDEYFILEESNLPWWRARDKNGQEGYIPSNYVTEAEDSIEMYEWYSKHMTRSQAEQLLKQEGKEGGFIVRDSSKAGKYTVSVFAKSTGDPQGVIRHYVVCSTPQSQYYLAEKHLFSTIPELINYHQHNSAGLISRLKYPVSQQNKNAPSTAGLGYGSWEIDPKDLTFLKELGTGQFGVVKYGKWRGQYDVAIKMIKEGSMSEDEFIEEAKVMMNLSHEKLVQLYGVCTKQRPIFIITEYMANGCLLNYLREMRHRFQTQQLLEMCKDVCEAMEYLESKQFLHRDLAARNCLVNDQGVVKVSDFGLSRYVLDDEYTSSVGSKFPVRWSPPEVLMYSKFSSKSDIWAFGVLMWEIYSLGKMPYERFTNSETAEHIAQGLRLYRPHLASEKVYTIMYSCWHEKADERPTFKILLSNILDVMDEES

IC50 (Btk)	IC50 (Lck)	IC50 (EGFR)	Compound
< 0.1 µM	1 to 10 µM	> 10 µM	Cc1ccnc(NC(=O)c2ccc(Oc3ccnc4[nH]nc(N[C@@H]5CCCN(C(=O)N6CCOCC6)C5)c34)cc2)c1 [compound 91, N-(4-methylpyridin-2-yl)-4-[(3-{[(3R)-1-(morpholine-4-carbonyl)piperidin-3-yl]amino}-1H-pyrazolo[3,4-b]pyridin-4-yl)oxy]benzamide]
< 0.1 µM	0.1 to 1 µM	< 0.1 µM	N#C/C(=C\C1CC1)C(=O)N1CC[C@@H](Nc2n[nH]c3nccc(Oc4ccc(Oc5ccccc5)cc4)c23)C1 [compound 18, (2E)-3-cyclopropyl-2-[(E)-(3R)-{[4-(4-phenoxyphenoxy)-1H-pyrazolo[3,4-b]pyridin-3-yl]amino}pyrrolidine-1-carbonyl]prop-2-enenitrile]
0.1 to 1 µM	> 10 µM	1 to 10 µM	Cc1cnc(NC(=O)c2ccc(Oc3ccnc4[nH]nc(C5CCCN(C(=O)C6CC6)C5)c34)cc2)s1 (stereo not drawn) [compound 193]
0.1 to 1 µM	1 to 10 µM	1 to 10 µM	CCNC(=O)N1CCCC(c2n[nH]c3nccc(Oc4ccc(C(=O)Nc5ncc(C)s5)cc4)c23)C1 (stereo not drawn) [compound 195, N-ethyl-3-(4-{4-[(5-methyl-1,3-thiazol-2-yl)carbamoyl]phenoxy}-1H-pyrazolo[3,4-b]pyridin-3-yl)piperidine-1-carboxamide]
0.1 to 1 µM	1 to 10 µM	0.1 to 1 µM	CN(C/C=C/C(=O)N1CC[C@@H](Nc2n[nH]c3ncnc(Oc4ccc(Oc5ccccc5)cc4)c23)C1)C1CC1 [compound 48]
< 0.1 µM	0.1 to 1 µM	1 to 10 µM	CN(C)C/C=C/C(=O)N1CC[C@@H](Nc2n[nH]c3nccc(Oc4ccc(Oc5ccccc5)cc4C#N)c23)C1 [compound 34, 2-[(3-{[(3R)-1-[(2E)-4-(dimethylamino)but-2-enoyl]pyrrolidin-3-yl]amino}-1H-pyrazolo[3,4-b]pyridin-4-yl)oxy]-5-phenoxybenzonitrile]
< 0.1 µM	1 to 10 µM	1 to 10 µM	CCC(=O)N1CC[C@@H](Nc2n[nH]c3nccc(Oc4ccc(C(=O)Nc5ncc(C)s5)cc4)c23)C1 [compound 190]
< 0.1 µM	0.1 to 1 µM	< 0.1 µM	CNC(=O)/C(C#N)=C\c1cccc(Nc2n[nH]c3nccc(Oc4ccc(Oc5ccccc5)cc4)c23)c1 [compound 29, (2Z)-2-cyano-N-methyl-3-(3-{[4-(4-phenoxyphenoxy)-1H-pyrazolo[3,4-b]pyridin-3-yl]amino}phenyl)prop-2-enamide]
1 to 10 µM	0.1 to 1 µM	0.1 to 1 µM	N#Cc1cc(Nc2n[nH]c3nccc(Oc4ccc(Oc5ccccc5)cc4)c23)ccn1 [compound 30, 4-{[4-(4-phenoxyphenoxy)-1H-pyrazolo[3,4-b]pyridin-3-yl]amino}pyridine-2-carbonitrile]
> 10 µM	> 10 µM	> 10 µM	CN(C/C=C/C(=O)Nc1ccccc1Nc1n[nH]c2nccc(Oc3ccc(Oc4ccccc4)cc3)c12)C1CC1 [compound 57]
< 0.1 µM	0.1 to 1 µM	< 0.1 µM	N#C/C(=C\c1ncc[nH]1)C(=O)N1CC[C@@H](Nc2n[nH]c3nccc(Oc4ccc(Oc5ccccc5)cc4)c23)C1 [compound 28, (2E)-3-(1H-imidazol-2-yl)-2-[(E)-(3R)-3-{[4-(4-phenoxyphenoxy)-1H-pyrazolo[3,4-b]pyridin-3-yl]amino}pyrrolidine-1-carbonyl]prop-2-enentrile]
< 0.1 µM	0.1 to 1 µM	< 0.1 µM	CN(C/C=C/C(=O)N1CC[C@@H](Nc2n[nH]c3nccc(Oc4ccc(OCc5cnn[nH]5)cc4)c23)C1)C1CC1 [compound 40]
1 to 10 µM	> 10 µM	> 10 µM	Cc1cccc2nc(-c3ccc(Oc4ccnc5[nH]nc(N[C@@H]6CCCN(C(=O)C7CCN(C)CC7)C6)c45)cc3)oc12 [compound 184]
> 10 µM	> 10 µM	> 10 µM	CCC(=O)N1CC[C@@H](Nc2n[nH]c3nccc(Oc4ccc(C(=O)Nc5nnc(C)[nH]5)cc4)c23)C1 [compound 75, N-(5-methyl-4H-1,2,4-triazol-3-yl)-4-[(3-{[(3R)-1-propanoylpyrrolidin-3-yl]amino}-1H-pyrazolo[3,4-b]pyridin-4-yl)oxy]benzamide]
< 0.1 µM	1 to 10 µM	1 to 10 µM	C=CC(=O)N1CC[C@@H](Nc2c[nH]c3nccc(Oc4ccc(Cl)cc4)c23)C1 [compound 7, 1-[(3R)-3-{[4-(4-chlorophenoxy)-1H-pyrrolo[2,3-b]pyridin-3-yl]amino}pyrrolidin-1-yl]prop-2-en-1-one]
< 0.1 µM	0.1 to 1 µM	1 to 10 µM	CCCc1ccnc(NC(=O)c2ccc(Oc3ccnc4[nH]nc(N[C@@H]5CCN(C(=O)/C=C/CN(C)C6CC6)C5)c34)cc2)c1 [compound 56]
0.1 to 1 µM	0.1 to 1 µM	0.1 to 1 µM	CNC(=O)/C(F)=C/c1cccc(Nc2n[nH]c3nccc(Oc4ccc(Oc5ccccc5)cc4)c23)c1 [compound 31, (2Z)-2-fluoro-N-methyl-3-(3-{[4-(4-phenoxyphenoxy)-1H-pyrazolo[3,4-b]pyridin-3-yl]amino}phenyl)prop-2-enamide]
< 0.1 µM	< 0.1 µM	0.1 to 1 µM	CN(C/C=C/C(=O)N1CC[C@@H](Nc2n[nH]c3nccc(Oc4ccc(Oc5ccccc5)cc4)c23)C1)C1CC1 [compound 10, (2E)-4-[cyclopropyl(methyl)amino]-1-[(3R)-3-{[4-(4-phenoxyphenoxy)-1H-pyrazolo[3,4-b]pyridin-3-yl]amino}pyrrolidin-1-yl]but-2-en-1-one]
> 10 µM	> 10 µM	> 10 µM	CCC(=O)N1CC[C@@H](Nc2n[nH]c3nccc(Oc4ccc(C(=O)Nc5nccn5C)cc4)c23)C1 [compound 73, N-(1-methyl-1H-imidazol-2-yl)-4-[(3-{[(3R)-1-propanoylpyrrolidin-3-yl]amino}-1H-pyrazolo[3,4-b]pyridin-4-yl)oxy]benzamide]
< 0.1 µM	1 to 10 µM	> 10 µM	Cc1ccnc(NC(=O)c2ccc(Oc3ccnc4[nH]nc(N[C@@H]5CCCN(C(=O)C6(C)CCOCC6)C5)c34)cc2)c1 [compound 87, 4-[(3-{[(3R)-1-(4-methyloxane-4-carbonyl)piperidin-3-yl]amino}-1H-pyrazolo[3,4-b]pyridin-4-yl)oxy]-N-(4-methylpyridin-2-yl)benzamide]
0.1 to 1 µM	0.1 to 1 µM	0.1 to 1 µM	CN(C)C/C=C/C(=O)N1CC[C@@H](Nc2n[nH]c3nccc(Oc4ccc(Oc5ccccc5)cc4S(N)(=O)=O)c23)C1 [compound 25, 2-[(3-{[(3R)-1-[(2E)-4-(dimethylamino)but-2-enoyl]pyrrolidin-3-yl]amino}-1H-pyrazolo[3,4-b]pyridin-4-yl)oxy]-5-phenoxybenzene-1-sulfonamide]
< 0.1 µM	< 0.1 µM	< 0.1 µM	CN(C/C=C/C(=O)N1CC[C@@H](Oc2n[nH]c3nccc(Oc4ccc(Oc5ccccc5)cc4)c23)C1)C1CC1 [compound 22, (2E)-4-[cyclopropyl(methyl)amino]-1-[(3R)-3-{[4-(4-phenoxyphenoxy)-1H-pyrazolo[3,4-b]pyridin-3-yl]oxy}pyrrolidin-1-yl]but-2-en-1-one]
0.1 to 1 µM	0.1 to 1 µM	> 10 µM	CN1CCC(C(=O)N2CCC[C@@H](Nc3n[nH]c4nccc(Oc5ccc(-c6nc7ccccc7s6)cc5)c34)C2)CC1 [compound 197, (3R)-N-{4-[4-(1,3-benzothiazol-2-yl)phenoxy]-1H-pyrazolo[3,4-b]pyridin-3-yl}-1-(1-methylpiperidine-4-carbonyl)piperidin-3-amine]
< 0.1 µM	0.1 to 1 µM	0.1 to 1 µM	N#C/C(=C\c1ccccn1)C(=O)N1CC[C@@H](Nc2n[nH]c3nccc(Oc4ccc(Oc5ccccc5)cc4)c23)C1 [compound 26, (2E)-2-[(E)-(3R)-3-{[4-(4-phenoxyphenoxy)-1H-pyrazolo[3,4-b]pyridin-3-yl]amino}pyrrolidine-1-carbonyl]-3-(pyridin-2-yl)prop-2-enenitrile]
> 10 µM	> 10 µM	> 10 µM	CCC(=O)N1CC[C@@H](Nc2n[nH]c3nccc(Oc4ccc(C(=O)Nc5nccc(=O)[nH]5)cc4)c23)C1 [compound 74, N-(6-oxo-1,6-dihydropyrimidin-2-yl)-4-[(3-{[(3R)-1-propanoylpyrrolidin-3-yl]amino}-1H-pyrazolo[3,4-b]pyridin-4-yl)oxy]benzamide]
